Assay results as given in patent US7361643B2, “Methods for inhibiting angiogenesis” (University of Puerto Rico, priority 2000, dated 2008).

What was measured:
protein N-glycosylation = settings: pre-treatment of cells with β-antagonist; cited from earlier work
[1] = tested on: bovine adrenal medullary microvascular endothelial cells; assay: Cell cycle and apoptosis by flow cytometry (propidium iodide); format: cell-based
Method: Regarding flow cytometry, assessment of the cell cycle was determined by propidium iodide staining of fixed cell nuclei followed by flow cytometry in a FacSort (Beckton Dickinson) according to the method of Krishan (1975) as modified by Vindelov (1977), as discussed in KRISHAN, “Rapid Flow Cytofluorometric Analysis of Mammalian Cell Cycle by Propidium Iodide Staining”, J. Cell Biol., 66:188-193 (1975); and VINDELOV, “Flow Cytometric Analysis of Nuclear DNA in Cells from Solid Tumors and Cell Suspensions”, Virchows Arch (B), 24:227-231(1977), the disclosures of which are herein incorporated by reference in their entireties. Briefly, cells were trypsinized, and pelleted by centrifugation at 900 rpm in a bench top centrifuge (Sorvall T6000B). After washing twice with PBS the cell pellet was resuspended in propidium iodide-buffer (PI-buffer; 10 mM Tris-HCl, pH 8.0 containing 10 mM NaCl, 0.7 μM PI, 700 units/liter RNase, and 0.1% (v/v) NP-40), kept in ice for 30 minutes and then fixed with 2% (v/v) paraformaldehyde. After FacSort calibration, 3000 events were counted per sample. Acquisition and analysis of data were carried out by using Cell Quest flow cytometry software (Macintosh-based). Gates: M1=G0/G1, M2=S, M3=G2+M, M4=apoptosis.
Proliferation and Differentiation of Capillary Endothelial Cells: 2.0×10^4 cells were seeded per well in 24-well clusters in 1 ml complete EMEM containing 10% (v/v) serum and allowed to grow for 72 hours. Media were removed and the cells were washed twice with phosphate-buffer saline, pH 7.4 (PBS). Cells were synchronized by incubating for 48 hours in 2 mM hydroxyurea in serum-free EMEM with glutamine (2 mM) and one-third of penicillin-streptomycin used in a regular culture condition, followed by incubating 24 hours in serum-free EMEM, as discussed in CAO et al., “Modified Method of Mammalian Cell Synchronization Improves Yield and Degree of Synchronization”, Exp. Cell Res., 193:405-410 (1991), the disclosure of which is herein incorporated by reference in its entirety. Cells were routinely monitored by light microscopy. For proliferation assay, cells were trypsinized and counted in a hemacytometer. Viability of cells was determined by trypan blue (0.4% (v/v)) exclusion. Statistical analysis was carried out by StatView II software (Macintosh). Quantitation of cellular differentiation was carried out by observing under a Nikon AlphaShot inverted microscope, and counting the number of capillary lumen-like structures in five randomly selected fields per sample. The results were expressed as percent of its corresponding control after normalization of cell numbers. Analysis of Cell Cycle by Flow Cytometry: Assessment of the cell cycle was determined by propidium iodide staining of fixed cell nuclei followed by flow cytometry in a FacSort (Beckton Dickinson) according to the method of Krishan (1975) as modified by Vindelov (1977), as discussed in KRISHAN, “Rapid Flow Cytometric Analysis of Mammalian Cell Cycle by Propidium Iodide Staining”, J. Cell Biol. 66:188-195 (1975); and VINDELOV, “Flow Cytometric Analysis of Nuclear DNA in Cells from Solid Tumors and Cell Suspensions”, Virchows Arch (B), 24:227-231 (1977), the disclosures of which are herein incorporated by reference in their entireties. Briefly, cells were trypsinized, and pelleted by centrifugation at 900 rpm in a bench top centrifuge (Sorvall T6000B). After washing twice with PBS the cell pellet was resuspended in propidium iodide-buffer (PI-buffer; 10 mM Tris-HCl, pH 8.0 containing 10 mM NaCl, 0.7 μM PI, 700 units/liter RNase, and 0.1% (v/v) NP-40), kept in ice for 30 minutes and then fixed with 2% (v/v) paraformaldehyde. After FacSort calibration, 3000 events were counted per sample. Acquisition and analysis of data were carried out by using Cell Quest flow cytometry software (Macintosh-based). Gates: M1 G0/G1, M2=S, M3=G2+M, M4=apoptosis.

[2] = tested on: bovine adrenal medullary microvascular endothelial cells; assay: Capillary endothelial cell growth and proliferation (cell count in hemacytometer); format: cell-based
Method: Cells in the amount of 2.0×10^4 were seeded per well in 24-well clusters in 1 ml complete EMEM containing 10% (v/v) serum and allowed to grow for 72 hours. Media were removed and the cells were washed twice with phosphate-buffer saline, pH 7.4 (PBS). Cells were synchronized by incubating for 48 hours in 2 mM hydroxyurea in serum-free EMEM with glutamine (2 mM) and one-third of penicillin-streptomycin used in a regular culture condition, followed by incubating 24 hours in serum-free EMEM, as discussed in CAO et al., “Modified Method of Mammalian Cell Synchronization Improves Yield and Degree of Synchronization”, Exp. Cell Res., 193:405-410 (1991), the disclosure of which is herein incorporated by reference in its entirety.
For proliferation assay, cells were trypsinized and counted in a hemacytometer. Viability of cells was determined by trypan blue (0.4% (v/v)) exclusion. Statistical analysis was carried out by StatView II software (Macintosh). Quantitation of cellular differentiation was carried out by observing under a Nikon AlphaShot inverted microscope, and counting the number of capillary lumen-like structures in five randomly selected fields per sample.
Synchronized cells, as described in Example 1, were cultured at 37° C. in complete EMEM containing fetal bovine serum (1% (v/v), 2% (v/v), or 10% (v/v), or complete EMEM with 2% (v/v) fetal bovine serum containing 1 ng/ml −100 ng/ml of bFGF/FGF-2, or containing 0.5 μg/ml to 5.0 μg/ml tunicamycin (lot number 10922120-07 from Boehringer-Mannheim, Indianapolis, Ind.). In each case, the cellular growth and proliferation was monitored by trypan blue exclusion, by counting the cell number, and by their ability to process through the cell cycle by flow cytometry.
Proliferation and Differentiation of Capillary Endothelial Cells: 2.0×10^4 cells were seeded per well in 24-well clusters in 1 ml complete EMEM containing 10% (v/v) serum and allowed to grow for 72 hours. Media were removed and the cells were washed twice with phosphate-buffer saline, pH 7.4 (PBS). […] Cells were routinely monitored by light microscopy. For proliferation assay, cells were trypsinized and counted in a hemacytometer. Viability of cells was determined by trypan blue (0.4% (v/v)) exclusion. […] Quantitation of cellular differentiation was carried out by observing under a Nikon AlphaShot inverted microscope, and counting the number of capillary lumen-like structures in five randomly selected fields per sample. The results were expressed as percent of its corresponding control after normalization of cell numbers. Analysis of Cell Cycle by Flow Cytometry: Assessment of the cell cycle was determined by propidium iodide staining of fixed cell nuclei followed by flow cytometry in a FacSort (Beckton Dickinson) according to the method of Krishan (1975) as modified by Vindelov (1977), as discussed in KRISHAN, “Rapid Flow Cytometric Analysis of Mammalian Cell Cycle by Propidium Iodide Staining”, J. Cell Biol. 66:188-195 (1975); and VINDELOV, “Flow Cytometric Analysis of Nuclear DNA in Cells from Solid Tumors and Cell Suspensions”, Virchows Arch (B), 24:227-231 (1977), the disclosures of which are herein incorporated by reference in their entireties. […]

[3] = tested on: capillary endothelial cells; settings: BANERJEE et al. (1993); cited from earlier work
[4] = cycloheximide replacing tunicamycin (data not shown)

## Cc1ccc(OCC(O)C(C)NC(C)C)c2c1CCC2 (stereo not drawn) [ICI-118,551]
Protein N-glycosylation
  protein N-glycosylation: reduced protein N-glycosylation substantially

## CC(C)NCC(O)COc1ccc(CC(N)=O)cc1 (stereo not drawn) [atenolol]
Protein N-glycosylation
  protein N-glycosylation: reduced protein N-glycosylation substantially

## C[C@@H]1C[C@@H]([C@H](O)CC2CC(=O)NC(=O)C2)C(=O)[C@@H](C)C1 [cycloheximide]
[1]; [4]
  induction of apoptosis: did not induce apoptosis
[2]; [4]
  cell proliferation: inhibited the cell proliferation in a time- and dose-dependent manner

## Amphomycin
[3]
  endothelial cell proliferation: inhibits endothelial cell proliferation in a dose-dependent manner

## bFGF/FGF-2: basic fibroblast growth factor
[1]; bFGF/FGF-2 10 ng/ml-100 ng/ml (68 hours in 2% serum control)
  time to complete the cell cycle: 56 h
[1]; bFGF/FGF-2 10 ng/ml-100 ng/ml versus 2% serum
  shortening of the G1 phase: 12 h
[2]; bFGF/FGF-2 10 ng/ml-100 ng/ml in 2% serum
  endothelial cell proliferation: stimulated the endothelial cell proliferation over the controls
[2]; bFGF/FGF-2 at stimulatory concentrations
  reduction of the lag phase: ~24 h
